In patent publication US6743937B2, “Efficient method of synthesizing combretastatin A-4 prodrugs” (OxiGene, Inc., priority 2000, dated 2004):

What was measured:
[1] = Solubility in organic solvents at 25° C.; format: physicochemical; details: based on cis-CA4P free acid; for Solubility in Acetone: BQL = below quantitation limit of the HPLC method
[2] = Aqueous solubility at 25° C. as a function of pH; format: physicochemical; details: for Aqueous solubility: 25° C., based on cis-CA4P free acid
[3] = Moisture sorption at 25° C.; format: physicochemical; details: for Loss on drying at 1% RH / Wt. gain at 30-70% RH / Wt. gain at > 70% RH: moisture sorption at 25° C.
[4] = Comparison of physical stability of Process A and Process B materials (DSC, TGA, powder-XRD, solubility); details: based on the available data
[5] = cited from earlier work

With `COc1ccc(/C=C\c2cc(OC)c(OC)c(OC)c2)cc1OP(=O)([O-])[O-].[Na+].[Na+]` [Process A Product, combretastatin A-4 disodium phosphate] as the compound, how does the “Solubility in Ethanol” value [1] read?
Its value is “Ethanol = 0.18 mg/mL”.

What about the “Solubility in Methanol” value [1] of the same compound?
The value was “Methanol = 22.4 mg/mL”.

And the “Solubility in Acetone” value [1]?
The value was “Acetone = 0.45 mg/mL”.

What about the Aqueous solubility ([2]; pH 0.6 (adjusted with HCl)) of the same compound?
The Aqueous solubility was 2.27 mg/mL.

What about the Aqueous solubility ([2]; pH 0.8 (adjusted with HCl)) of the same compound?
Its Aqueous solubility is 0.83 mg/mL.

What about the Aqueous solubility ([2]; pH 1.2 (adjusted with HCl)) of the same compound?
The Aqueous solubility was 0.35 mg/mL.

And the Aqueous solubility ([2]; pH 5.2 (adjusted with HCl))?
Its Aqueous solubility is 77.4 mg/mL.

What about the Aqueous solubility ([2]; pH 5.6 (adjusted with HCl)) of the same compound?
The Aqueous solubility was 76.8 mg/mL.

What about the Aqueous solubility ([2]; pH 7.1 (adjusted with HCl)) of the same compound?
The Aqueous solubility was 169 mg/mL.

And the Aqueous solubility ([2]; pH 7.2 (adjusted with HCl))?
Its Aqueous solubility is 204 mg/mL.

What about the Aqueous solubility ([2]; pH 7.8 (adjusted with HCl)) of the same compound?
Its Aqueous solubility is 208 mg/mL.

And the Aqueous solubility ([2]; pH 9.4 (in water))?
The Aqueous solubility was 213 (in water) mg/mL.

What about the “Hygroscopicity compared between products” value [3] of the same compound?
Its value is “greater degree of hygroscopicity than the Product B product”.

What about the “Loss on drying at 1% RH” value [3] of the same compound?
Its value is 5.7%.

What about the “Wt. gain at 30-70% RH” value [3] of the same compound?
The value was 7-8.6%.

What about the “Wt. gain at > 70% RH” value [3] of the same compound?
The value was 9-30%.

For `COc1ccc(/C=C\c2cc(OC)c(OC)c(OC)c2)cc1OP(=O)([O-])[O-].[Na+].[Na+]` [Process B Product, disodium salt of combretastatin A-4 phosphate], which “Solubility in Ethanol” value [1] is on record?
The value was “Ethanol = 0.096 mg/mL”.

What about the “Solubility in Methanol” value [1] of the same compound?
The value was “Methanol = 1.77 mg/mL”.

And the “Solubility in Acetone” value [1]?
The value was “Acetone = BQL^$”.

What about the Aqueous solubility ([2]; pH 0.8 (adjusted with HCl)) of the same compound?
The Aqueous solubility was 0.21 mg/mL.

What about the Aqueous solubility ([2]; pH 0.97 (adjusted with HCl)) of the same compound?
Its Aqueous solubility is 0.25 mg/mL.

And the Aqueous solubility ([2]; pH 2.20 (adjusted with HCl))?
Its Aqueous solubility is 1.61 mg/mL.

And the Aqueous solubility ([2]; pH 3.26 (adjusted with HCl))?
Its Aqueous solubility is 5.35 mg/mL.

And the Aqueous solubility ([2]; pH 6.96 (adjusted with HCl))?
Its Aqueous solubility is 34.7 mg/mL.

And the Aqueous solubility ([2]; pH 7.28 (adjusted with HCl))?
The Aqueous solubility was 81.2 mg/mL.

And the Aqueous solubility ([2]; pH 7.35 (adjusted with HCl))?
Its Aqueous solubility is 94.3 mg/mL.

What about the Aqueous solubility ([2]; pH 8.40 (adjusted with HCl)) of the same compound?
The Aqueous solubility was 115 mg/mL.

And the Aqueous solubility ([2]; pH 9.4 (in water))?
Its Aqueous solubility is 118 (in water) mg/mL.

And the “Solubility compared between products” value ([2]; both aqueous and organic solvents at 25° C.)?
Its value is “consistently lower solubility than the Process A product”.

And the “Physical stability compared between products” value [4]?
The value was “physically more stable material than Process A”.

And the “Loss on drying at 1% RH” value [3]?
Its value is 6.6%.

And the “Wt. gain at 30-70% RH” value [3]?
Its value is 3%.

What about the “Wt. gain at > 70% RH” value [3] of the same compound?
Its value is “upto 30%”.

With `COc1ccc(/C=C\c2cc(OC)c(OC)c(OC)c2)cc1O` [combretastatin A-4] as the compound, how does the Solubility in water [5] read?
Its Solubility in water is “extremely poor solubility in water”.
